Here are results for five compounds from PMC11672562, “Synthesis and Antibacterial Activity of New 6″-Modified Tobramycin Derivatives” (Antibiotics, 2024).

Values after ≈ are worked out from the molar mass of the structure shown. A value given as a limit tells only on which side of the number the result lay.

Series [1] has as its system E. coli JW5503. The experiment in a line: MIC, broth microdilution, E. coli JW5503. It is filed as cell-based. As to conditions: Escherichia coli, JW5503. Here is the method:
(§1) The microbial strains used in this study were obtained from the collection of the Gause Institute of New Antibiotics. […] Storage was carried out in accordance with CLSI guidelines. Prior to experimentation, the bacterial strains were revived from cryopreservation by inoculating them onto trypticase soy agar (Becton, Dickinson, France) and incubating at (36 ± 1) °C for 16–24 h. Individual morphologically homogeneous colonies were then suspended in sterile physiological saline, and the turbidity of the suspension was adjusted to 0.5 McFarland units using a DEN-1 spectrophotometer (Biosan, Riga, Latvia), which corresponds to a concentration of 1.5 × 10^8 CFU/mL.
(§2) The samples were dissolved in sterile distilled water or dimethyl sulfoxide (DMSO), depending on the physicochemical properties of the compounds under investigation, to a concentration of 10,000 µg/mL.
(§3) Activity was evaluated by determining the minimum inhibitory concentration (MIC) values using the microdilution method in Mueller–Hinton Broth (Beckton and Dickinson, Le Pont-de-Claix, France), in accordance with the standard procedure for assessing the antimicrobial susceptibility of microorganisms.
(§4) The analysis was conducted in 96-well microtiter plates (Medpolymer, Saint Petersburg, Russia). The bacterial inoculum was introduced within 15 min of preparation. […] Microbial growth in the presence of the tested compounds was compared to the growth control (without exposure to the test samples). The MIC was defined as the lowest concentration at which visible microbial growth was inhibited.
For orientation: Broth dilution looks for growth in wells or tubes with falling amounts of substance.

For series [2], the system named is E. coli ATCC 25922. The experiment in a line: MIC, broth microdilution, E. coli ATCC 25922. It counts as cell-based. As to conditions: for MIC: Escherichia coli, ATCC25922, Table 1, read-out: MIC. Here is the method:
as §1, §2, §3, §4
(§5) The MIC values of the reference strains were required to fall within the acceptable ranges specified in [30], provided that standard assay conditions were maintained.

The test system of series [3] is resistant clinical isolates of P. aeruginosa. The experiment in a line: MIC against resistant clinical isolates of P. aeruginosa. It is filed as cell-based. As to conditions: for MIC: Pseudomonas aeruginosa. Here is the method:
as §1, §2, §3, §4

Series [4] relates to E. coli JW5503 kanS EF-G P610L. The experiment in a line: MIC in LB medium, aminoglycoside-resistant mutant EF-G P610L. It is filed as cell-based. As to conditions: Escherichia coli, 18 h. Here is the method: (§6) The determination of the minimum inhibitory concentration (MIC) was performed on three strains from the working collection of MSU: E. coli JW5503 [34], which lacked a kanamycin resistance cassette removed as per the method outlined in [39], and two strains derived from this strain through in vivo selection with kanamycin. The latter strains harbored P610T and P610L substitutions in the fusA gene. For the MIC determination, 100 μL (rows 2–11) and 200 μL (row 1) of LB liquid medium containing a 1:1000 dilution of overnight culture was added to each well of a 96-well transparent plate. Subsequently, 2 μL of a 50 μg/mL antibiotic solution was introduced into the first row, and serial two-fold dilutions were performed across each horizontal row, decreasing the antibiotic concentration incrementally. The final two rows were designated as controls: row 12 contained LB medium without cells or antibiotics, and row 11 contained cells without antibiotics. Following 18 h of incubation at 37 °C with constant agitation, the optical density at 590 nm (A590) was measured using a Victor X5 2030 spectrofluorometer (PerkinElmer, Waltham, MA, USA). The MIC was defined as the antibiotic concentration in the first well where no cell growth occurred. Each experiment was conducted in triplicate for all tested antibiotics.

Series [5] deals with S. aureus ATCC 29213. The experiment in a line: MIC, broth microdilution, S. aureus ATCC 29213. It counts as cell-based. As to conditions: Staphylococcus aureus, ATCC29213, Table 1, read-out: MIC. Here is the method: as §1, §2, §3, §4, §5
Series [6] can be described thus: MTT cytotoxicity assay. It counts as cell-based. As to conditions: human, MTT test, HEK293T cells. Here is the method:
An MTT assay was conducted to assess the cytotoxicity of compounds on HEK293T cell lines. Cell line HEK293T was kindly provided by Dr. E. Knyazhanskaya. A total of 2500 cells per well were seeded into 96-well plates containing 100 μL of DMEM/F12 medium (Paneco LLC, Moscow, Russia) and incubated at 37 °C with 5% CO2 for 24 h prior to treatment. Dilutions of the test compounds 4a, 4b, 6a, and 6b, prepared in deionized sterile water, were added in 11 μL aliquots to achieve final concentrations ranging from 8.75 to 140 μg/mL (five dilutions per compound) in triplicate. The cells were incubated with the compounds for 72 h, after which 0.5 mg/mL of MTT reagent (Paneco LLC, Russia) was added. Following a 1.5 h incubation, the medium was removed, and 120 μL of DMSO was added to dissolve the blue formazan derivative formed by metabolically active cells. The absorbance at 565 nm was measured using a plate reader, and the data were normalized to untreated control cells. The half-maximal inhibitory concentration (IC50) was calculated using GraphPad Prism 5 software (GraphPad Software, Inc., San Diego, CA, USA).

The test system of series [7] is E. coli S30 Extract System, firefly luciferase synthesis. The experiment in a line: Cell-free translation inhibition assay (firefly luciferase synthesis). It counts as biochemical. As to conditions: final concentration of 2 μM; water = 100. Here is the method:
The inhibitory effects of the tested compounds on in vitro firefly luciferase synthesis were evaluated using the E. coli S30 Extract System for Linear Templates (Promega, Madison, WI, USA), as described previously. Briefly, reaction mixtures with a total volume of 5 μL were prepared, containing 0.1 mM of a mixture of all canonical amino acids, 4 U of RiboLock RNase Inhibitor (Thermo Fisher Scientific, Waltham, MA, USA), and 2 μM of the tested compounds. After pre-incubation at room temperature for 5 min, 100 ng of in vitro-transcribed firefly luciferase mRNA was added. The mixtures were then incubated at 37 °C for 20 min. After incubation, each reaction was supplemented with 5 μL of Bright-Glo™ reagent (Promega, Madison, WI, USA), and chemiluminescence was measured using a VICTOR X5 Multilabel Plate Reader (PerkinElmer, Waltham, MA, USA). The luminescence values were normalized to the negative control (water), which was assigned 100% activity.

For series [8], the system named is M. smegmatis ATCC 607. The experiment in a line: MIC, broth microdilution, M. smegmatis ATCC 607. It is filed as cell-based. As to conditions: Mycolicibacterium smegmatis, ATCC607, Table 1, read-out: MIC. Here is the method:
as §1, §2, §3, §4

For series [9], the system named is E. coli JW5503 kanS. The experiment in a line: MIC in LB medium, E. coli JW5503 kanS. It is filed as cell-based. As to conditions: Escherichia coli, JW5503KANS, 18 h. Here is the method: as §6
Series [10] has as its system E. coli JW5503 kanS EF-G P610T. The experiment in a line: MIC in LB medium, aminoglycoside-resistant mutant EF-G P610T. It is filed as cell-based. As to conditions: Escherichia coli, 18 h. Here is the method: as §6
The mark [11] stands for this setting: P. aeruginosa strain, Table 2 column 3, head prints 27853.
The mark [12] stands for this setting: P. aeruginosa strain, Table 2 column 4, head prints 27853.
[13] abbreviates: P. aeruginosa strain, Table 2 column 5, head prints 27853.
Where [14] appears, read: P. aeruginosa strain, Table 2 column 6, head prints 27853.
[15] abbreviates: P. aeruginosa strain, Table 2 column 7, head prints 27853.
Where [16] appears, read: multidrug-resistant clinical isolates P. aeruginosa 21653 and P. aeruginosa 21571.

For orientation: MIC means the smallest concentration in the dilution series that meets the test's criterion for growth inhibition. Broadly, the IC50 is the concentration that inhibits the measured activity by half. Lower therefore signals inhibition by little substance. On to `NC[C@H]1O[C@H](O[C@H]2[C@H](O)[C@@H](O[C@H]3O[C@H](CO)[C@@H](O)[C@H](N)[C@H]3O)[C@H](N)C[C@@H]2N)[C@H](N)C[C@@H]1O` [Tobramycin, tobramycin], for which the MIC in series [1] is 1 µg/mL (≈ 2.14 µM); in series [2] it was 0.25 µg/mL (≈ 0.535 µM); in series [3] (setting [11]) it was more than 128 µg/mL; in series [3] (setting [12]), more than 128 µg/mL; in series [3] (setting [13]), more than 128 µg/mL; in series [3] (setting [14]), more than 32 µg/mL. Further, the MIC in series [3] (setting [15]) is more than 32 µg/mL; in series [4], 40 µg/mL (≈ 85.6 µM); in series [5], 0.06 µg/mL (≈ 0.128 µM); in [8], 0.06 µg/mL (≈ 0.128 µM); in series [9], 5 µg/mL (≈ 10.7 µM); in series [10] it was 20 µg/mL (≈ 42.8 µM). In addition, in series [2] (quality control, must fall in acceptable ranges of [30]), the “MIC of control antibiotic” value is 0.25 to 1 µg/mL. The resistance index in [3] (resistant clinical isolates of P. aeruginosa strains) is listed as more than 256. Also, in [6], the midpoint of inhibition, the IC50 at 72 h, lay at 58 ± 3 µg/mL (≈ 124 µM). For the same compound, the “% control signal (relative maximal rate of firefly luciferase accumulation in vitro)” value in [7] was determined as 0.01%.

Consider `N=C(N)NCCCNC[C@H]1O[C@H](O[C@@H]2[C@@H](O)[C@H](O[C@H]3O[C@H](CN)[C@@H](O)C[C@H]3N)[C@@H](N)C[C@H]2N)[C@H](O)[C@@H](N)[C@@H]1O` [Compound 6b, 6″-(3-Guanidinopropyl-1-amino)-6″-deoxytobramycin acetate], for which the MIC in series [1] is 8 µg/mL; in series [2] it was 2 µg/mL; in series [3] (setting [11]), 16 µg/mL; in [3] (setting [12]) it was 32 µg/mL; in [3] (setting [13]), more than 32 µg/mL; in series [3] (setting [14]), more than 32 µg/mL. Besides, the MIC was more than 32 µg/mL in series [3] (setting [15]); 80 µg/mL in series [4]; 0.5 µg/mL in series [5]; 0.25 µg/mL in [8]; 40 µg/mL in series [9]; 80 µg/mL in series [10]. For the same compound, the IC50 at 72 h in [6] is more than 140 µg/mL. Besides, in [7], the “% control signal (relative maximal rate of firefly luciferase accumulation in vitro)” value is given as 21%.

Consider `NCCNC[C@H]1O[C@H](O[C@@H]2[C@@H](O)[C@H](O[C@H]3O[C@H](CN)[C@@H](O)C[C@H]3N)[C@@H](N)C[C@H]2N)[C@H](O)[C@@H](N)[C@@H]1O` [Compound 4a, 6″-(2-Aminoethyamino)-6″-deoxytobramycin acetate], for which the MIC in series [1] was 2 µg/mL; in [2], 0.5 µg/mL; in series [3] (setting [11]) it was 16 µg/mL; in series [3] (setting [12]) it was 32 µg/mL; in series [3] (setting [13]), more than 32 µg/mL; in [3] (setting [14]), more than 32 µg/mL. Moreover, the MIC in [3] (setting [15]) is 32 µg/mL; in series [3] (setting [16]) it was 16 to 32 µg/mL; in series [4], 40 µg/mL; in series [5] it was 0.125 µg/mL; in series [8], 0.125 µg/mL; in series [9] it was 10 µg/mL. Also, the MIC in [10] turned out to be 40 µg/mL. The compound further gave a half-maximal inhibitory concentration (IC50) at 72 h in series [6] of more than 140 µg/mL. Further, the “% control signal (relative maximal rate of firefly luciferase accumulation in vitro)” value in series [7] came out at 0.02%.

`N=C(N)NCCNC[C@H]1O[C@H](O[C@@H]2[C@@H](O)[C@H](O[C@H]3O[C@H](CN)[C@@H](O)C[C@H]3N)[C@@H](N)C[C@H]2N)[C@H](O)[C@@H](N)[C@@H]1O` [Compound 6a, 6″-(2-Guanidinoethylamino)-6″-deoxytobramycin acetate]: the MIC was 4 µg/mL in series [1]; 1 µg/mL in series [2]; 16 µg/mL in series [3] (setting [11]); 16 µg/mL in series [3] (setting [12]); more than 32 µg/mL in series [3] (setting [13]); 32 µg/mL in series [3] (setting [14]). Moreover, the minimal inhibitory concentration (MIC) is 32 µg/mL in series [3] (setting [15]); 16 to 32 µg/mL in series [3] (setting [16]); 40 µg/mL in series [4]; 0.125 µg/mL in series [5]; 0.125 µg/mL in [8]; 10 µg/mL in series [9]. In [10], this compound returned a minimal inhibitory concentration (MIC) of 40 µg/mL. In series [6], this compound registered an IC50 at 72 h of more than 140 µg/mL. In addition, in series [7], the “% control signal (relative maximal rate of firefly luciferase accumulation in vitro)” value is reported as 0.4%.

Regarding `NCCCNC[C@H]1O[C@H](O[C@@H]2[C@@H](O)[C@H](O[C@H]3O[C@H](CN)[C@@H](O)C[C@H]3N)[C@@H](N)C[C@H]2N)[C@H](O)[C@@H](N)[C@@H]1O` [Compound 4b, 6″-(3-Aminopropyl-1-amino)-6″-deoxytobramycin acetate], the MIC was 8 µg/mL in series [1]; 1 µg/mL in series [2]; 32 µg/mL in series [3] (setting [11]); 32 µg/mL in [3] (setting [12]); more than 32 µg/mL in series [3] (setting [13]); more than 32 µg/mL in series [3] (setting [14]). For the same compound, the MIC was more than 32 µg/mL in series [3] (setting [15]); 80 µg/mL in series [4]; 0.125 µg/mL in series [5]; 0.125 µg/mL in [8]; 20 µg/mL in series [9]; 80 µg/mL in series [10]. The compound further yielded a concentration for half-maximal inhibition (IC50) at 72 h in series [6] of more than 140 µg/mL. Besides, in series [7], the “% control signal (relative maximal rate of firefly luciferase accumulation in vitro)” value is given as 7%.
